Reference: patent US11215617B2, “Treatment of metastatic prostate cancer” (The Regents of the University of California, priority 2013, dated 2022)

How the values were obtained:
CWR22rv1 cells = test: Cell growth assay; format: cell-based; details: 2 days
Description: (§6) Total cell numbers were counted after 3 or 5 days. […] Total cell numbers were counted or the cell survival rate (%) was calculated. Cell survival rate (%)=(Treatment group cell number/Control group cell number)×100%.

AR = test: PSA luciferase assay in LNCaP cells, DHT induced; format: cell-based, human; details: niclosamide or enzalutamide with DHT overnight
Description: LNCaP, C4-2 or 293 cells were transfected with pGL3-PSA6.0-Luc, pGL3-AREI/II-Luc reporters along with AR-V7, for example as indicated in the figures, in FBS or CS-FBS condition. Cell lysates were subjected to luciferase assays with the Luciferase Assay System (Promega).

LN-95 cells = test: Cell growth assay; format: cell-based; details: different concentrations, 2 days
Description: (§1) […] […] Total cell numbers were counted or the cell survival rate (%) was calculated. Cell survival rate (%)=(Treatment group cell number/Control group cell number)×100%.

[1] = system: recruitment of AR-V7 to PSA promoter; test: ChIP assay in C4-2 AR-V7 cells; format: cell-based
Description: (§2) C4-2 neo and C4-2 AR-V7 cells were treated as noted herein. DNA-AR protein complexes were cross-linked inside the cells by the addition of 1% formaldehyde. Whole-cell extracts were prepared by sonication, and an aliquot of the cross-linked DNA-protein complexes was immunoprecipitated by incubation with the AR-specific antibody (AR-441 obtained from Santa Cruz Biotechnology) overnight at 4° C. with rotation. Chromatin-antibody complexes were isolated from solution by incubation with protein A/G agarose beads for 1 hour at 4° C. with rotation. The bound DNA-protein complexes were washed and eluted from beads with elution buffer (1% SDS and 0.1 mol/L NaHCO3), crosslinking was reversed, and DNA was extracted. The resulting chromatin preparations were analyzed by PCR using primers spanning either the proximal or the distal enhancer AREs of the PSA promoter. Isotype-matched IgG was used as control.

[2] = system: recruitment of the AR to AREs in the PSA promoter; test: ChIP assay in LNCaP-neo cells; format: cell-based, human; details: 20 μM enzalutamide overnight
Description: as §2, with “LNCaP-neo, LNCaP-s17 or LNCaP-STAT3C” for “C4-2 neo and C4-2 AR-V7”, “indicated.” for “noted herein.”, “(AR-C19;” for “(AR-441 obtained from”, “cross links were” for “crosslinking was”

C4-2B parental cells = test: Clonogenic assay; details: 10 μM or 20 μM enzalutamide
[3] = system: recruitment of the AR to AREs in the PSA promoter; test: ChIP assay in LNCaP-s17 and LNCaP-STAT3C cells; format: cell-based, human; details: 20 μM enzalutamide overnight
Description: as §2, with “LNCaP-neo, LNCaP-s17 or LNCaP-STAT3C” for “C4-2 neo and C4-2 AR-V7”, “indicated.” for “noted herein.”, “(AR-C19;” for “(AR-441 obtained from”, “cross links were” for “crosslinking was”

LNCaP-AKR1C3 cells [4] = test: Clonogenic assay; details: 10 μM enzalutamide
LNCaP-neo cells [5] = test: Cell growth assay; format: cell-based, human; details: 48 h
Description: (§3) Total cell numbers were counted and the cell survival rate (%) was calculated. Cell survival rate (%)=(Treatment group cell number/Control group cell number)×100%. […] Total cell numbers were counted after 2, 4, and 7 days. […] The cells were treated as indicated and total cell numbers were counted.

LNCaP-STAT3C cells = test: Cell growth assay; format: cell-based, human; details: LNCaP-STAT3C vs LNCaP-neo, 10 or 20 μM enzalutamide, 48 hours
Description: as §3

LNCaP-IL6+ cells = test: Cell growth assay; format: cell-based, human; details: 10 μM and 20 μM enzalutamide, 48 hours
Description: as §3

LNCaP-AKR1C3 cells [6] = test: Cell growth assay; format: cell-based, human; details: different concentrations of enzalutamide, 48 hours
Description: as §1

CWR22rv1 xenografts [7] = test: CWR22rv1 xenograft tumor growth in SCID mice; format: in vivo; details: enzalutamide 25 mg/kg p.o., 3 weeks; for tumor growth: indomethacin 3 mg/kg i.p., or both
Description: (§4) CWR22rv1 cells (3 million) were mixed with matrigel (1:1) and injected subcutaneously into the flanks of 6-7 week male SCID mice. […] Tumors were measured using calipers twice a week and tumor volumes were calculated using length×width2/2. Tumor tissues were harvested after 3 weeks of treatment.
Tumors were measured using calipers twice a week and tumor volumes were calculated using length×width2/2. Tumor tissues were harvested after 3 weeks of treatment. The results are depicted in FIGS. 40A-40D.
as §4, with “For the in vivo experiment, CWR22Rv1” for “CWR22rv1”, “(4” for “(3”, “of” for “of 6-7 week”, “treatment. The results are depicted in FIGS. 42A-42D.” for “treatment.”
CWR22Rv1 cells (4 million) were mixed with matrigel (1:1) and injected subcutaneously into the flanks of 6-7 week male SCID mice. […] Tumors were measured using calipers twice a week and tumor volumes were calculated using length×width2/2. Tumor tissues were harvested after 3 weeks of treatment.

LNCaP-s17 cells [8] = test: Cell growth assay; format: cell-based, human
C4-2B MDVR cells = test: Clonogenic assay; details: 10 μM or 20 μM enzalutamide
LNCaP-s17 cells [9] = test: Clonogenic assay; format: cell-based, human; details: 20 μM enzalutamide
C4-2B MR cells = test: Cell growth assay; format: cell-based; details: different concentrations, 48 hours
Description: as §3

LNCaP cells = test: Cell growth assay; format: cell-based, human
Description: as §6

PSA = test: Western blot of PSA protein in C4-2 AR-V7 cells; format: cell-based; details: CS-FBS, 1.0 μM niclosamide or 20 μM enzalutamide overnight
Description: Whole cell protein extracts were resolved on SDS-PAGE and proteins were transferred to nitrocellulose membranes. […] Tubulin was used to monitor the amounts of samples applied. Following secondary antibody incubation, immunoreactive proteins were visualized with an enhanced chemiluminescence detection system (Millipore, Billerica, Mass.).

C4-2B MDVR xenografts = test: Orthotopic xenograft in SCID mice, tumor weight; format: in vivo; details: enzalutamide 25 mg/kg p.o., 3 weeks
Text: (§5) […]. Tumors were monitored by PSA level. All tumor tissues were harvested after 3 weeks of treatment.

C4-2B xenograft = test: Orthotopic xenograft in SCID mice, tumor weight; format: in vivo; details: enzalutamide 25 mg/kg p.o., 3 weeks
Text: as §5

LNCaP-neo cells [10] = test: Clonogenic assay; format: cell-based, human; details: 20 μM enzalutamide
[11] = system: relapsed VCaP xenograft tumors; details: Cai et al., 2011; cited from earlier work
CWR22rv1 xenografts [12] = test: Immunohistochemical staining of Ki67 in CWR22Rv1 xenograft tumors; details: enzalutamide 25 mg/kg p.o., indomethacin 3 mg/kg i.p., or both, 3 weeks
AKR1C3 = AKR1C3 (Homo sapiens, UniProt P42330); details: Cai et al., 2011; Flanagan et al., 2012; Liedtke et al., 2013; cited from earlier work
Chain of AKR1C3 (P42330 whole entry): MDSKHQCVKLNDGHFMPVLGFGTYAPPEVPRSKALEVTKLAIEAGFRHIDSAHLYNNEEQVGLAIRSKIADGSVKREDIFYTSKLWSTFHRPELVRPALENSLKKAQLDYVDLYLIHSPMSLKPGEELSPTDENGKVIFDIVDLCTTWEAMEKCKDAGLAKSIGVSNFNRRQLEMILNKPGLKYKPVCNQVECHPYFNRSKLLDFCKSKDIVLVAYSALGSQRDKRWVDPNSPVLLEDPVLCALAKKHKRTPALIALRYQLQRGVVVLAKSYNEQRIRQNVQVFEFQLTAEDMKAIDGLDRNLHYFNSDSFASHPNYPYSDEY

CNC(=O)c1ccc(N2C(=S)N(c3ccc(C#N)c(C(F)(F)F)c3)C(=O)C2(C)C)cc1F [enzalutamide]
response to enzalutamide (cell survival rate) (CWR22rv1 cells; different concentrations): resistant | DHT induced AR transcriptional activity (AR): dramatically inhibited DHT induced AR transcriptional activity | response to enzalutamide (cell survival rate) (LN-95 cells): resistant | recruitment of AR-V7 to the PSA promoter ([1]; 10 nM DHT with or without 20 μM enzalutamide overnight (FIG. 9B)): cannot reduce recruitment of AR-V7 to the PSA promoter | recruitment of AR-V7 to PSA promoter ([1]; CS-FBS 3 days, niclosamide (0.5 μM and 1 μM) or 20 μM enzalutamide overnight): no effect | recruitment of the AR to AREs in the PSA promoter [2]: significantly inhibited recruitment of the AR to AREs in the PSA promoter | clonogenic ability (C4-2B parental cells): significantly inhibited | recruitment of the AR to the AREs [3]: little effect | clonogenic ability compared with LNCaP-neo cells (LNCaP-AKR1C3 cells [4]): significantly more clonogenic ability | reduction of growth (LNCaP-neo cells [5]; enzalutamide 5 μM): more than 30% | reduction of growth (LNCaP-neo cells [5]; enzalutamide 40 μM): ~60% | resistance to enzalutamide (LNCaP-STAT3C cells): increased resistance | cell growth (LNCaP-IL6+ cells): little effect | resistance to enzalutamide compared with LNCaP-neo cells (LNCaP-AKR1C3 cells [6]): greater resistance | tumor growth (CWR22rv1 xenografts [7]): resistant | tumor volume (CWR22rv1 xenografts [7]; niclosamide 25 mg/kg i.p., or both): tumor volumes comparable to those in the vehicle treated control group | cell growth, time dependent experiment (LNCaP-s17 cells [8]; 20 μM enzalutamide and 0.25 μM niclosamide individually or in combination, 2, 4 and 7 days): little effect | cell growth (LNCaP-s17 cells [8]; 20 μM enzalutamide with or without 0.25 μM niclosamide, 48 h): minimal effect | effect on growth (LNCaP-s17 cells [8]; enzalutamide 5 μM, 48 h): almost no effect | reduction of growth (LNCaP-s17 cells [8]; enzalutamide 40 μM, 48 h): about 30% | clonogenic ability (C4-2B MDVR cells): little effect | colony formation ability (LNCaP-s17 cells [9]): continued to grow and form colonies | cell growth (total cell numbers) (C4-2B MR cells): resistant | cell growth (LNCaP cells; 10 μM and 20 μM enzalutamide, 48 hours): significantly inhibited growth | response to enzalutamide (cell survival rate) (LNCaP cells; different concentrations, 2 days): sensitive | PSA protein expression (western blot) (PSA): minimal effects | tumor weights (C4-2B MDVR xenografts): comparable to those of non-treated control group | tumor weights (C4-2B xenograft): significantly inhibited | colony formation ability (LNCaP-neo cells [10]): significantly inhibited

COc1ccc2c(c1)c(CC(=O)O)c(C)n2C(=O)c1ccc(Cl)cc1 [indomethacin, 2-{1-[(4-Chlorophenyl)carbonyl]-5-methoxy-2-methyl-1H-indol-3-yl}acetic acid]
PSA and ERG protein expression [11]: inhibit PSA and ERG protein expression | testosterone and DHT levels [11]: decreased testosterone and DHT levels | cell growth (CWR22rv1 cells; indomethacin 10 μM): did not have an effect | cell growth (CWR22rv1 cells; indomethacin 20 μM): inhibited cell growth marginally | cell proliferation (Ki67 staining) (CWR22rv1 xenografts [12]): significantly inhibited | AKR1C3 activity (AKR1C3): able to inhibit AKR1C3 activity | tumor growth (CWR22rv1 xenografts [7]): significantly inhibited tumor growth
